Assay results: PubChem BioAssay AID330 (DTP/NCI, 2004)
Values joined by “and” are separate entries in the source; they are usually repeats but may differ in a detail not shown here. Equal values may be shown once. Inconclusive results and toxic doses are left out. The calls were made as follows: active = survival T/C of 150% or more; inactive = T/C below 125% in these data. Peptide text beside a SMILES is read from it.

Test system: P388 leukemia ip, CD2F1 mice, survival T/C
Test: NCI In Vivo Anticancer Drug Screen. Data for tumor model P388 Leukemia (intraperitoneal) in CD2F1 (CDF1) mice
Conditions: endpoint: median survival time, higher = longer survival
Summary of the method: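 Mice carrying the transplanted tumor received test compound or vehicle. Survival was recorded in each group, and the value is the treated-group measurement divided by that of the vehicle-treated control group.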

[1] = dose: 50.0 mg/kg/injection, schedule: Q01DX009 (ip), vehicle: Klucel (hydroxypropylcellulose) (HPC)
[2] = dose: 100.0 mg/kg/injection, schedule: Q01DX009 (ip), vehicle: Klucel (hydroxypropylcellulose) (HPC)
[3] = dose: 200.0 mg/kg/injection, schedule: Q01DX009 (ip), vehicle: Klucel (hydroxypropylcellulose) (HPC)
[4] = dose: 400.0 mg/kg/injection, schedule: Q01DX009 (ip), vehicle: Klucel (hydroxypropylcellulose) (HPC)
[5] = dose: 12.5 mg/kg/injection, schedule: Q01DX009 (ip), vehicle: saline with Tween-80
[6] = dose: 25.0 mg/kg/injection, schedule: Q01DX009 (ip), vehicle: saline with Tween-80
[7] = dose: 50.0 mg/kg/injection, schedule: Q01DX009 (ip), vehicle: saline with Tween-80
[8] = dose: 100.0 mg/kg/injection, schedule: Q01DX009 (ip), vehicle: saline with Tween-80
[9] = dose: 25.0 mg/kg/injection, schedule: Q04DX003 (ip), vehicle: saline with Tween-80
[10] = dose: 50.0 mg/kg/injection, schedule: Q04DX003 (ip), vehicle: saline with Tween-80
[11] = dose: 100.0 mg/kg/injection, schedule: Q04DX003 (ip), vehicle: saline with Tween-80
[12] = dose: 100.0 mg/kg/injection, schedule: Q04DX003 (ip), vehicle: saline
[13] = dose: 200.0 mg/kg/injection, schedule: Q01DX009 (ip), vehicle: saline with Tween-80
[14] = dose: 200.0 mg/kg/injection, schedule: Q04DX003 (ip), vehicle: saline
[15] = dose: 400.0 mg/kg/injection, schedule: Q04DX003 (ip), vehicle: saline
[16] = dose: 50.0 mg/kg/injection, schedule: Q01DX005 (ip), vehicle: saline with Tween-80
[17] = dose: 100.0 mg/kg/injection, schedule: Q01DX005 (ip), vehicle: saline with Tween-80
[18] = dose: 200.0 mg/kg/injection, schedule: Q01DX005 (ip), vehicle: saline with Tween-80

Measured: T/C

CC(C)CC(NC(=O)C(Cc1ccccc1)NC(=O)CNC(=O)CN)C(=O)O (stereo unspecified) (H-GGFL-OH; configuration not given here)
inactive: dose: 12.5 mg/kg/injection, schedule: Q01DX005 (ip), vehicle: water 100 % of control | dose: 25.0 mg/kg/injection, schedule: Q01DX005 (ip), vehicle: water 100 % of control | dose: 50.0 mg/kg/injection, schedule: Q01DX005 (ip), vehicle: water 96 % of control | dose: 100.0 mg/kg/injection, schedule: Q01DX005 (ip), vehicle: water 102 % of control | dose: 200.0 mg/kg/injection, schedule: Q01DX005 (ip), vehicle: water 96 % of control

O=C(NNC(=S)NC1OCC(O)C(O)C1O)c1ccco1 (stereo unspecified)
inactive: dose: 50.0 mg/kg/injection, schedule: Q01DX005 (ip), vehicle: Klucel (hydroxypropylcellulose) (HPC) 99 % of control and 102 % of control | dose: 100.0 mg/kg/injection, schedule: Q01DX005 (ip), vehicle: Klucel (hydroxypropylcellulose) (HPC) 100 % of control and 102 % of control | dose: 200.0 mg/kg/injection, schedule: Q01DX005 (ip), vehicle: Klucel (hydroxypropylcellulose) (HPC) 104 % of control and 106 % of control | dose: 400.0 mg/kg/injection, schedule: Q01DX005 (ip), vehicle: Klucel (hydroxypropylcellulose) (HPC) 98 % of control

CCCCCCC(=O)/C=C/c1ccccc1OCOC
inactive: [1] 100 % of control (2×) and 108 % of control | [2] 99 % of control and 100 % of control and 106 % of control | [3] 103 % of control and 111 % of control | [4] 117 % of control

O=C1CC(C(=O)N2Cc3cc4ccccc4nc3C2)CO1 (stereo unspecified)
inactive: dose: 3.13 mg/kg/injection, schedule: Q01DX009 (ip), vehicle: saline with Tween-80 100 % of control and 98 % of control | dose: 6.25 mg/kg/injection, schedule: Q01DX009 (ip), vehicle: saline with Tween-80 99 % of control and 100 % of control and 115 % of control | [5] 106 % of control and 124 % of control and 98 % of control | [6] 100 % of control (2×) and 108 % of control | [7] 100 % of control

CCCCn1c2nc(=O)[nH]c(=O)c-2cc2ccccc21
inactive: [6] 98 % of control | [7] 94 % of control | [8] 91 % of control

C[n+]1cccc(C(N)=O)c1
inactive: dose: 25.0 mg/kg/injection, schedule: Q01DX009 (ip), vehicle: water 102 % of control | dose: 50.0 mg/kg/injection, schedule: Q01DX009 (ip), vehicle: water 112 % of control | dose: 100.0 mg/kg/injection, schedule: Q01DX009 (ip), vehicle: water 112 % of control | dose: 200.0 mg/kg/injection, schedule: Q01DX009 (ip), vehicle: water 110 % of control | dose: 400.0 mg/kg/injection, schedule: Q01DX009 (ip), vehicle: water 100 % of control

Cc1ccccc1S(=O)(=O)F
inactive: [6] 100 % of control | [9] 100 % of control | [7] 100 % of control | [10] 100 % of control | [8] 109 % of control | [11] 100 % of control

CCc1c(CC(=O)O)c2cc(C)ccc2n1Cc1ccc(Cl)cc1
inactive: [5] 95 % of control | [6] 104 % of control | [9] 104 % of control and 95 % of control and 91 % of control | [7] 109 % of control | [10] 108 % of control and 91 % of control | [11] 90 % of control and 108 % of control and 92 % of control | [12] 96 % of control | dose: 200.0 mg/kg/injection, schedule: Q04DX003 (ip), vehicle: saline with Tween-80 90 % of control

NNC(=O)CNC(=O)Nc1cccc(C(F)(F)F)c1
inactive: [7] 100 % of control | [8] 92 % of control | [13] 100 % of control

CCCCCN(CCCCC)CC(O)c1c(OC)ccc2ccccc12 (stereo unspecified)
inactive: dose: 12.5 mg/kg/injection, schedule: Q01DX009 (ip), vehicle: Klucel (hydroxypropylcellulose) (HPC) 102 % of control | dose: 25.0 mg/kg/injection, schedule: Q01DX009 (ip), vehicle: Klucel (hydroxypropylcellulose) (HPC) 103 % of control | [1] 94 % of control

CCC1OC(/C(C)=C/C(C)/C=C/C2C(C)C2/C=C/C2OC(CC(=O)O)CC(O)C2O)CC=C1C (stereo unspecified)
inactive: dose: 16.82 mg/kg/injection, schedule: Q01DX009 (ip), vehicle: saline 100 % of control | dose: 33.65 mg/kg/injection, schedule: Q01DX009 (ip), vehicle: saline 92 % of control | dose: 67.3 mg/kg/injection, schedule: Q01DX009 (ip), vehicle: saline 94 % of control

C/C=C/C1OC(OC)(OC)C1(OC)OC (stereo unspecified)
inactive: dose: 60.0 mg/kg/injection, schedule: Q01DX005 (ip), vehicle: saline 100 % of control | dose: 120.0 mg/kg/injection, schedule: Q01DX005 (ip), vehicle: saline 100 % of control | dose: 240.0 mg/kg/injection, schedule: Q01DX005 (ip), vehicle: saline 100 % of control

CN1C(=O)C2C=CC1c1ccccc12 (stereo unspecified)
inactive: [12] 104 % of control | [14] 106 % of control | [15] 99 % of control

NC(=S)C(F)(F)F
inactive: dose: 75.0 mg/kg/injection, schedule: Q01DX001 (ip), vehicle: saline with Tween-80 103 % of control | dose: 150.0 mg/kg/injection, schedule: Q01DX001 (ip), vehicle: saline with Tween-80 113 % of control | dose: 300.0 mg/kg/injection, schedule: Q01DX001 (ip), vehicle: saline with Tween-80 103 % of control

CC1=CCC2(C)CCC(C(C)C)C2(O)CC1 (stereo unspecified)
inactive: dose: 50.0 mg/kg/injection, schedule: Q04DX003 (ip), vehicle: saline 104 % of control | [12] 90 % of control | [14] 100 % of control

CCCCCCCCCCCCCCCCS(=O)(=O)c1ccc(NN)cc1
inactive: [2] 90 % of control | [3] 89 % of control | [4] 87 % of control

C=Cn1c([N+](=O)[O-])cnc1/C=C/c1ccc(C(=O)OCCN2CCCC2)cc1
inactive: dose: 12.5 mg/kg/injection, schedule: Q01DX001 (ip), vehicle: DMSO 105 % of control | dose: 25.0 mg/kg/injection, schedule: Q01DX001 (ip), vehicle: DMSO 98 % of control | dose: 50.0 mg/kg/injection, schedule: Q01DX001 (ip), vehicle: DMSO 104 % of control | dose: 100.0 mg/kg/injection, schedule: Q01DX001 (ip), vehicle: DMSO 100 % of control

CC(=O)NCc1cccc([N+](=O)[O-])c1
inactive: dose: 25.0 mg/kg/injection, schedule: Q01DX005 (ip), vehicle: saline with Tween-80 100 % of control | [16] 103 % of control | [17] 100 % of control | [18] 105 % of control

CN1/C(=C2\C=CC=C\C2=N/S(=O)(=O)c2ccccc2)Sc2ccccc21
inactive: [12] 104 % of control | [14] 99 % of control | [15] 94 % of control

FC(F)(F)c1ccc(C(Nc2nncs2)Nc2nncs2)cc1
inactive: [16] 93 % of control | [17] 96 % of control | [18] 105 % of control

NC(CCCCNC(=O)c1ccccc1)C(=O)O (stereo unspecified)
inactive: [16] 101 % of control | [17] 93 % of control | [18] 99 % of control

COC(=O)c1nnn(-c2ccc(C)c(C)c2)c1C(=O)c1ccccc1
inactive: dose: 60.0 mg/kg/injection, schedule: Q01DX005 (ip), vehicle: saline with Tween-80 99 % of control | dose: 120.0 mg/kg/injection, schedule: Q01DX005 (ip), vehicle: saline with Tween-80 109 % of control

CCOC(=O)NCCCl
inactive: dose: 5.0 mg/kg/injection, schedule: Q01DX009 (ip), vehicle: saline with Tween-80 104 % of control | dose: 10.0 mg/kg/injection, schedule: Q01DX009 (ip), vehicle: saline with Tween-80 107 % of control | dose: 20.0 mg/kg/injection, schedule: Q01DX009 (ip), vehicle: saline with Tween-80 101 % of control | dose: 50.0 mg/kg/injection, schedule: Q01DX008 (ip), vehicle: saline 95 % of control | dose: 100.0 mg/kg/injection, schedule: Q01DX008 (ip), vehicle: saline 98 % of control | dose: 200.0 mg/kg/injection, schedule: Q01DX008 (ip), vehicle: saline 107 % of control | dose: 400.0 mg/kg/injection, schedule: Q01DX008 (ip), vehicle: saline 101 % of control

Cc1c(-c2ccccc2)nc(N)n1C
inactive: dose: 5.0 mg/kg/injection, schedule: Q04DX002 (ip), vehicle: saline 100 % of control | dose: 10.0 mg/kg/injection, schedule: Q04DX002 (ip), vehicle: saline 99 % of control | dose: 20.0 mg/kg/injection, schedule: Q04DX002 (ip), vehicle: saline 96 % of control

O=C1c2ccccc2C(=O)N1C(CO)Cc1ccccc1 (stereo unspecified)
inactive: [7] 100 % of control | [8] 95 % of control | [13] 108 % of control
